According to ChEMBL document CHEMBL5537135, “Novel antimicrobial peptides modified with fluorinated sulfono-γ-AA having high stability and targeting multidrug-resistant bacteria infections” (Eur J Med Chem, 2024):
Converted amounts (≈) assume the structure as drawn. The source made the active and inactive calls. The rule behind the calls is not given here. Numbered stars: 1 amine (or outer) side, 2 acyl side, 3 side chain; on linkers, the order of the positions; unused ones are H or OH. Square brackets hold non-standard residues; d marks the D form. Peptide text beside a SMILES is read from it. * marks the point of attachment. X3 = CC(C)C[C@@H](CN(CC(N)=O)S(=O)(=O)c1ccc(C(F)(F)F)cc1)N*; X2 = CC(C)C[C@H](N)CN(CC(=O)[*:2])[*:1]; X1 = O=S(=O)(c1ccc(C(F)(F)F)cc1)*

Legend:
[1] = test system: Cell membrane; test: Induction of cytoplasmic membrane depolarization in methicillin-resistant Staphylococcus aureus ATCC 33591 assessed as increase in fluorescence intensity at 2 times MIC by DiSC35 dye-based fluorescence assay
[2] = test system: Staphylococcus aureus; test: Antimicrobial activity against methicillin-resistant Staphylococcus aureus 5 assessed as inhibition of visible bacterial growth incubated for 18 hrs by broth-dilution method; assay type: functional
[3] = test system: Acinetobacter baumannii; test: Antimicrobial activity against Acinetobacter baumannii ATCC 19606 assessed as inhibition of visible bacterial growth incubated for 18 hrs by broth-dilution method; assay type: functional
[4] = test system: Pseudomonas aeruginosa; test: Antimicrobial activity against multidrug-resistant Pseudomonas aeruginosa 516 assessed as inhibition of visible bacterial growth incubated for 18 hrs by broth-dilution method; assay type: functional
[5] = test system: Staphylococcus aureus; test: Antimicrobial activity against Staphylococcus aureus ATCC 25923 assessed as inhibition of visible bacterial growth incubated for 18 hrs by broth-dilution method; assay type: functional
[6] = test system: Staphylococcus epidermidis; test: Antibiofilm activity against Staphylococcus epidermidis ATCC 12228 assessed as inhibition of biofilm formation at 4 to 8 microg/ml incubated for 24 hrs by crystal violet staining based analysis; assay type: functional; details: dose 4-8 µg/ml, at 4 to 8 µg/mL
[7] = test system: Cell membrane; test: Disruption of membrane integrity in Pseudomonas aeruginosa ATCC 27853 incubated for 30 mins by PI staining based CLSM analysis
[8] = test system: Staphylococcus aureus; test: Antibiofilm activity against Staphylococcus aureus ATCC 25923 assessed as inhibition of biofilm formation at 4 to 8 microg/ml incubated for 24 hrs by crystal violet staining based analysis; assay type: functional; details: dose 4-8 µg/ml, at 4 to 8 µg/mL
[9] = Stability in human serum assessed as half life measured for 5 hrs by RP-HPLC analysis; assay type: ADME, cell-free
[10] = test system: Staphylococcus aureus; test: Antimicrobial activity against methicillin-resistant Staphylococcus aureus 1 assessed as inhibition of visible bacterial growth incubated for 18 hrs by broth-dilution method; assay type: functional
[11] = test system: Pseudomonas aeruginosa; test: Antibiofilm activity against Pseudomonas aeruginosa ATCC 27853 assessed as biofilm thickness at 8 microg/ml incubated for 24 hrs by confocal laser scanning microscopic analysis; assay type: functional; details: dose 8 µg/ml
[12] = test system: Staphylococcus aureus; test: Antibiofilm activity against methicillin-resistant Staphylococcus aureus ATCC 33591 assessed as biofilm thickness at 8 microg/ml incubated for 24 hrs by confocal laser scanning microscopic analysis; assay type: functional; details: dose 8 µg/ml
[13] = test system: Pseudomonas aeruginosa; test: Antibiofilm activity against Pseudomonas aeruginosa ATCC 27853 assessed as biofilm thickness at 2 times MIC90 incubated for 24 hrs by confocal laser scanning microscopic analysis; assay type: functional
[14] = test system: Staphylococcus aureus; test: Additive antibacterial activity against methicillin-resistant Staphylococcus aureus S5 assessed as fractional inhibitory concentration index in presence of amoxicillin by checkerboard assay; assay type: functional
[15] = test system: Staphylococcus epidermidis; test: Antimicrobial activity against Staphylococcus epidermidis ATCC 12228 assessed as inhibition of visible bacterial growth incubated for 18 hrs by broth-dilution method; assay type: functional
[16] = test system: Staphylococcus aureus; test: Antimicrobial activity against Staphylococcus aureus ATCC 25923 assessed as reduction in bacterial growth in presence of Ca2+; assay type: functional
[17] = test system: Staphylococcus aureus; test: Antimicrobial activity against methicillin-resistant Staphylococcus aureus ATCC 33591 assessed as inhibition of visible bacterial growth incubated for 18 hrs by broth-dilution method; assay type: functional
[18] = test system: Staphylococcus aureus; test: Antimicrobial activity against methicillin-resistant Staphylococcus aureus ATCC 33591 assessed as reduction in bacterial growth in presence of human serum; assay type: functional
[19] = test system: Staphylococcus aureus; test: Antimicrobial activity against methicillin-resistant Staphylococcus aureus 9 assessed as inhibition of visible bacterial growth incubated for 18 hrs by broth-dilution method; assay type: functional
[20] = test system: Staphylococcus aureus; test: Antimicrobial activity against methicillin-resistant Staphylococcus aureus 6 assessed as inhibition of visible bacterial growth incubated for 18 hrs by broth-dilution method; assay type: functional
[21] = test system: Cell membrane; test: Induction of outer membrane permeabilization in Pseudomonas aeruginosa ATCC 27853 assessed as increase in NPN uptake measured upto 20 mins by NPN-dye based fluorescence analysis
[22] = test system: Cell membrane; test: Induction of membrane disruption in Staphylococcus aureus ATCC 33591 assessed as membrane blebbing at 2 to 4 times MIC incubated for 24 hrs by SEM analysis; assay type: cell membranes
[23] = test system: Pseudomonas aeruginosa; test: Antibacterial activity against Pseudomonas aeruginosa ATCC 27853 infected in C57BL/6 mouse pneumonia model assessed as log reduction in bacterial load in lung at 5 mg/kg, ip administered for 1 to 48 hrs and measured after 3 days; assay type: functional; details: time 1-120 hrs
[24] = test system: Staphylococcus aureus; test: Antibacterial activity against methicillin-resistant Staphylococcus aureus ATCC 33591 infected in full-thickness wound BALB/c mouse model assessed as reduction in inflammatory infiltration at 1 mg/kg, ip administered for 1 to 48 hrs and measured after 3 days; assay type: functional, organism-based; details: time 1-120 hrs
[25] = Toxicity in mouse assessed as liver lesion at 20 mg/kg, ip measured for 30 to 60 mins by H and E staining based analysis; assay type: organism-based; details: in vivo, time 30-60 min
[26] = test system: Cell membrane; test: Induction of membrane depolarization in Pseudomonas aeruginosa ATCC 27853 assessed as increase in fluorescence intensity by DiSC35 dye-based fluorescence assay; assay type: cell membranes
[27] = Toxicity in mouse assessed as kidney lesion at 20 mg/kg, ip measured for 30 to 60 mins by H and E staining based analysis; assay type: organism-based; details: in vivo, time 30-60 min
[28] = test system: Cell membrane; test: Induction of membrane disruption in Pseudomonas aeruginosa ATCC 27853 assessed as membrane lysis at 2 to 4 times MIC incubated for 24 hrs by SEM analysis; assay type: cell membranes
[29] = test system: Pseudomonas aeruginosa; test: Bactericidal activity against Pseudomonas aeruginosa ATCC 27853 assessed as reduction in viable bacteria at 4 times MIC measured for 1 min by time-kill assay; assay type: functional, organism-based
[30] = Toxicity in mouse assessed as spleen lesion at 20 mg/kg, ip measured for 30 to 60 mins by H and E staining based analysis; assay type: organism-based; details: in vivo, time 30-60 min
[31] = test system: Staphylococcus aureus; test: Additive antibacterial activity against Staphylococcus aureus ATCC 33591 assessed as fractional inhibitory concentration index in presence of polymyxin B by checkerboard assay; assay type: functional
[32] = test system: Staphylococcus aureus; test: Synergistic antibacterial activity against methicillin-resistant Staphylococcus aureus S5 assessed as fractional inhibitory concentration index in presence of vancomycin by checkerboard assay; assay type: functional
[33] = test system: Staphylococcus aureus; test: Antibacterial activity against methicillin-resistant Staphylococcus aureus ATCC 33591 infected in full-thickness wound BALB/c mouse model assessed as wound healing at 0.25 to 1 mg/kg, ip administered for 1 to 48 hrs and measured after 10 days; assay type: functional, organism-based; details: dose 0.25-1 mg/kg, time 1-288 hrs
[34] = test system: Staphylococcus aureus; test: Antibacterial activity against methicillin-resistant Staphylococcus aureus ATCC 33591 infected in full-thickness wound BALB/c mouse model assessed as log reduction in bacterial load at 0.25 mg/kg, ip administered for 1 to 48 hrs and measured after 3 days by SEM analysis; assay type: functional; details: time 1-120 hrs
[35] = test system: Pseudomonas aeruginosa; test: Antibacterial activity against Pseudomonas aeruginosa ATCC 27853 infected in C57BL/6 mouse pneumonia model assessed as […] at 2.5 to 10 mg/kg, ip administered for 1 to 48 hrs and measured after 3 days by H and E staining based analysis; assay type: functional, organism-based; details: dose 2.5-10 mg/kg, time 1-120 hrs
[36] = Toxicity in mouse assessed as animal survival at 20 mg/kg, ip measured for 7 days; assay type: organism-based; details: in vivo, 168 h, time 7 day
[37] = test system: Cell membrane; test: Induction of membrane depolarization in methicillin-resistant Staphylococcus aureus ATCC 33591 assessed as increase in fluorescence intensity by DiSC35 dye-based fluorescence assay; assay type: cell membranes

SMILES	MIC [2]	MIC [3]	MIC [4]	MIC [5]	inhibition (INH) [6]	Activity [7]	inhibition (INH) [8]	half-life [9]	MIC [10]	Activity [11]	Activity [12]	Activity [13]	fractional inhibitory concentration index (FICI) [14]	MIC [15]	MIC [16]	MIC [17]	MIC [18]	MIC [19]	MIC [20]	Activity [21]	further results
CC(C)C[C@@H](CN(CC(N)=O)S(=O)(=O)c1ccc(C(F)(F)F)cc1)NC(=O)[C@H](CCCCN)NC(=O)[C@H](CCCCN)NC(=O)[C@H](CC(C)C)NC(=O)[C@H](CC(C)C)NC(=O)[C@H](CCCCN)NC(=O)[C@H](CC(C)C)NC(=O)[C@@H](N)Cc1ccccc1 (H-FLKLLKK-X3)	8 mg/L (≈ 6.39 µM)	16 mg/L (≈ 12.8 µM)	16 mg/L (≈ 12.8 µM)	4 mg/L (≈ 3.19 µM)	50%	Active	50%	2.96 h	8 mg/L (≈ 6.39 µM)	20 um	20 um	20 um	0.5	4 mg/L (≈ 3.19 µM)	32 mg/L	4 mg/L (≈ 3.19 µM)	8 mg/L	8 mg/L (≈ 6.39 µM)	4 mg/L (≈ 3.19 µM)	Dose-Dependent Effect	Activity [1]: Active
CC(C)C[C@H](N)CN(CC(=O)N[C@@H](CCCCN)C(=O)N[C@@H](CC(C)C)C(=O)N[C@@H](CC(C)C)C(=O)N[C@@H](CCCCN)C(=O)N[C@@H](CCCCN)C(=O)N[C@@H](CC(C)C)C(=O)N[C@@H](CC(C)C)C(N)=O)S(=O)(=O)c1ccc(C(F)(F)F)cc1 (X1-[X2]KLLKKLL-NH2)	4 mg/L (≈ 3.28 µM)	16 mg/L (≈ 13.1 µM)	4 mg/L (≈ 3.28 µM)	4 mg/L (≈ 3.28 µM)	50%	Active	50%	9.22 h	4 mg/L (≈ 3.28 µM)	20 um	20 um	20 um	1	4 mg/L (≈ 3.28 µM)	32 mg/L	4 mg/L (≈ 3.28 µM)	8 mg/L	8 mg/L (≈ 6.56 µM)	4 mg/L (≈ 3.28 µM)	Dose-Dependent Effect	Activity [22]: Active; log(activity) [23]: 4.51; Activity [24]: Active; Activity [25]: Non-Toxic; Activity [26]: Dose-Dependent Effect; Activity [27]: Non-Toxic; Activity [28]: Active; Activity [29]: Active; Activity [30]: Non-Toxic; fractional inhibitory concentration index (FICI) [31]: 1; fractional inhibitory concentration index (FICI) [32]: 2; Activity [33]: Active; log(activity) [34]: 0.82; Activity [35]: Active; Activity [36]: Non-Toxic; Activity [37]: Dose-Dependent Effect
